Here are results for one substance from patent US7534558B2, “In vitro diagnostic test for enterovirus infections” (Universite de Lille 2 Droit Et Sante, priority 2003, dated 2009).

What all share (type): cell-based, human
The test system of assay [1] is CVB3/plasma induced IFNα production by PBMCs. In words: CVB3/plasma induced IFNα production by PBMCs (DELFIA). The note with it: CVB3 infection of PBMCs; healthy donor plasma preincubated 1 h with the VP4 protein before CVB3; 48 h; positive control 323 IU/ml. On the procedure:
(§1) VP4, H antigen or mock proteins were preincubated for 1 h at 37° C. at different concentrations with plasma from 5 healthy subjects diluted at optimal dilution (1/10 or 1/100 ). CVB3 or CVB4 were then added for 1 hour before incubating with PBMCs. […] On the contrary, the mock proteins isolated from non-infected Hep-2 cells have non effect on the IFNα production.
PBMCs separated from whole heparinated blood are distributed into microwells (plate of 96 wells), at the rate of 5 to 8.10^5 cell in 100 μl of supplemented RPMI medium by well. The infection of PBMC is made with a final volume of 100 μl of preparation in each well. […]
(§2) The concentration of the produced IFNα is determined with a sensitive and specific technique, the DELFIA method (Dissociation Enhanced Lanthanide FluoroImmmoAssay) (Rönnblom and al 1997).
The dosage of IFNα is performed following the DELFIA principle (Dissociation Enhanced Lanthanide FluoroImmunoAssay), based on a immunofluorescence in retarded phase method using antibodies binding IFNα of which one is labelled with europium. The use of an activation solution will release the europium conjugated with antibodies and emit a fluorescence proportional to the amount of produced IFNα and measured with a fluorometer (fluorometer LKB Wallac 1230 ARCOSO®, Turku, Finlande). […]

For assay [2], the system named is CVB4E2/plasma induced IFNα production by PBMCs. As to the kind of experiment: CVB4E2/plasma induced IFNα production by PBMCs (DELFIA). On the procedure:
as §1
(§3) PBMCs separated from whole heparinated blood are distributed into microwells (plate of 96 wells), at the rate of 5 to 8.10^5 cell in 100 μl of supplemented RPMI medium by well. The infection of PBMC is made with a final volume of 100 μl of preparation in each well. After incubation for 48 h at 37° C. under a 5% CO2 atmosphere and 90% humidity, the supernatant is harvested and used immediately for IFNα dosage, or clarified by centrifugation for 10 minutes at 180×g and stored at −80° C. until dosage of the produced IFNα.
as §2
(§4) The dosage of IFNα is performed following the DELFIA principle (Dissociation Enhanced Lanthanide FluoroImmunoAssay), based on a immunofluorescence in retarded phase method using antibodies binding IFNα of which one is labelled with europium. The use of an activation solution will release the europium conjugated with antibodies and emit a fluorescence proportional to the amount of produced IFNα and measured with a fluorometer (fluorometer LKB Wallac 1230 ARCOSO®, Turku, Finlande).
Monoclonal anti-IFNα antibodies LT 273 (5.4 mg/ml) and LT 293 (4.8 mg/ml) supplied by Dr Gunar Alm (Uppsala, Sweden) are coated to the bottom of the wells after an incubation for 12 hours at room temperature. These plates can be stored in a buffer at 4° C. or are used immediately. Standard samples of human IFNα are prepared with an “irrelevant” monoclonal mouse antibody IgG1 in order to establish the reference curve (10 measurements). The other samples to be analysed are added to each well (100 μl) with the dilution buffer and the “irrelevant” antibodies and incubated for 2 hours with gentle stirring at room temperature. The wells are washed 3 times with the washing solution. The antibody conjugated to europium (200 μl) is added to each well, left to incubate for 1 hour at room temperature with gentle stirring. The plate is washed 6 times with a washing solution. The activation solution (200 μl), added immediately after washing and left for 20 to 30 minutes for incubation in the well, causes a cleavage of the europium bound to the antibody fixed to IFNα, emitting a fluorescence measured with the fluorescence reader (LKB Wallac 1230 ARCUS®). The IFNα concentration will be calculated from the values of the measured fluorescence by means of the Graphpad program (San Diego, USA). The detection threshold of IFNα is of 0.5 IU/ml.
The plasma from a healthy donor (optimal dilution 1/10th or 1/100th) is pre-incubated for 1 hour at 37° C. with the recombinant VP4 protein of CVB4E2 (optimal concentration at 1 μg/ml). The whole is incubated again for one hour at 37° C. in the presence of the CVB4E2 virus (dilutions at 1/10th or 1/100th; viral titer at 10^13 TCID50/ml) then applied to the PBMCs, (5.10^5/well) to incubate for 48 hours.
In the same way, the plasma preparation preincubated for 1 hour and VP4 of CVB3 are incubated for 1 hour with CVB4E2 before infecting the PBMCs for 48 hours and determinating the amount of the produced IFNα.
The virus (CVB4E2 or CVB3) infected PBMCs in the presence of plasma are deemed to be positive controls of this experimentation. The negative controls are obtained with one well of PBMC alone, one well of virus CVB4B2 alone and one well of CVB3 alone.
The CVB4E2 induced IFNα production in cultures of PBMCs previously incubated in the presence of plasma from healthy subjects was measured. […]

Assay [3] relates to IFNα production by PBMCs. In words: IFNα production by PBMCs with VP4 protein alone (control wells). The note with it: no virus, no plasma. On the procedure:
as §3, §2, §4
Monoclonal anti-IFNα antibodies LT 273 (5.4 mg/ml) and LT 293 (4.8 mg/ml) supplied by Dr Gunar Alm (Uppsala, Sweden) are coated to the bottom of the wells after an incubation for 12 hours at room temperature. […]

For the substance “recombinant VP4 protein: recombinant VP4 protein of CVB4E2, made in E. coli as MBP-VP4 fusion and cleaved by Factor Xa”, the IFNα production in assay [1] is reported as 308 IU/ml; in assay [2] (CVB4E2 infection of PBMCs, healthy donor plasma preincubated 1 h with the VP4 protein before CVB4E2, 48 h, positive control 148 IU/ml) it was 8.5 IU/ml; in assay [2] (protein at 0.01 μg/mL preincubated with plasma, then CVB4E2 (m.o.i. 1), PBMCs 48 h, mean +/- SD, three donors), 189.5+/−21.6 IU/mL; in assay [2] (protein at 0.1 μg/ml preincubated with plasma, then CVB4E2 (m.o.i. 1), PBMCs 48 h, mean +/- SD, three donors), 104.7+/−4.5 IU/mL; in assay [2] (protein at 1 μg/ml preincubated with plasma, then CVB4E2 (m.o.i. 1), PBMCs 48 h, mean +/- SD, three donors), 44.1+/−24.3 IU/mL; in assay [2] (protein at 10 μg/ml preincubated with plasma, then CVB4E2 (m.o.i. 1), PBMCs 48 h, mean +/- SD, three donors), 15.3+/−7.9 IU/mL. In addition, the “IFNα production in the presence of CVB4E2” value in assay [2] (plasma 1/10 preincubated 1 h with VP4 recombinant protein of CVB4E2 diluted 1/10) is reported as “collapsed”. In assay [3], the “IFNα production by PBMCs, protein alone” value was “do not lead to the IFNα production”.
